From ChEMBL document CHEMBL1148814, “Novel class of quinone-bearing polyamines as multi-target-directed ligands to combat Alzheimer's disease” (J Med Chem, 2007)
Active and inactive are the calls of the source. No cut-off for these calls is given here.

Legend:
SH-SY5Y [1] = experiment: Antioxidant activity in human SHSY5Y cells overexpressing NQO1 assessed as increase in tert-butyl hydroperoxide evoked-intracellular ROS formation at 3 uM after 24 hrs relative to control; type: functional
SH-SY5Y [2] = experiment: Antioxidant activity in human SHSY5Y cells overexpressing NQO1 assessed as increase in tert-butyl hydroperoxide evoked-intracellular ROS formation at 0.1 uM after 24 hrs relative to control; type: functional
SH-SY5Y [3] = experiment: Antioxidant activity in human SHSY5Y cells overexpressing NQO1 assessed as increase in tert-butyl hydroperoxide evoked-intracellular ROS formation at 0.3 uM after 24 hrs relative to control; type: functional
SH-SY5Y [4] = experiment: Antioxidant activity in human SHSY5Y cells overexpressing NQO1 assessed as increase in tert-butyl hydroperoxide evoked-intracellular ROS formation at 1 uM after 24 hrs relative to control; type: functional
Acetylcholinesterase = Acetylcholinesterase (Homo sapiens, UniProt P22303)
Description: Inhibition of human recombinant acetylcholinesterase

Cholinesterase = Cholinesterase (Homo sapiens, UniProt P06276)
Description: Inhibition of human recombinant butyrylcholinesterase

[5] = biological target: NAD(P)H dehydrogenase [quinone] 1 (Homo sapiens) (UniProt P15559); experiment: Activity of NQO1 enzyme
Sequence of NAD(P)H dehydrogenase [quinone] 1 (Homo sapiens) (P15559 whole entry): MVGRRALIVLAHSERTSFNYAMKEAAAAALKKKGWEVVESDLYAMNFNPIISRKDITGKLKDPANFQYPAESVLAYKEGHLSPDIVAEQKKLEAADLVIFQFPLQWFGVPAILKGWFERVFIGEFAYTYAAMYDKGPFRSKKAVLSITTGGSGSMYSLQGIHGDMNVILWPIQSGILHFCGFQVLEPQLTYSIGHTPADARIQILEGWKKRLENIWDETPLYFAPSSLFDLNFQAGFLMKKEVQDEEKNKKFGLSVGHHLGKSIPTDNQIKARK

Sequence of Acetylcholinesterase (P22303 whole entry): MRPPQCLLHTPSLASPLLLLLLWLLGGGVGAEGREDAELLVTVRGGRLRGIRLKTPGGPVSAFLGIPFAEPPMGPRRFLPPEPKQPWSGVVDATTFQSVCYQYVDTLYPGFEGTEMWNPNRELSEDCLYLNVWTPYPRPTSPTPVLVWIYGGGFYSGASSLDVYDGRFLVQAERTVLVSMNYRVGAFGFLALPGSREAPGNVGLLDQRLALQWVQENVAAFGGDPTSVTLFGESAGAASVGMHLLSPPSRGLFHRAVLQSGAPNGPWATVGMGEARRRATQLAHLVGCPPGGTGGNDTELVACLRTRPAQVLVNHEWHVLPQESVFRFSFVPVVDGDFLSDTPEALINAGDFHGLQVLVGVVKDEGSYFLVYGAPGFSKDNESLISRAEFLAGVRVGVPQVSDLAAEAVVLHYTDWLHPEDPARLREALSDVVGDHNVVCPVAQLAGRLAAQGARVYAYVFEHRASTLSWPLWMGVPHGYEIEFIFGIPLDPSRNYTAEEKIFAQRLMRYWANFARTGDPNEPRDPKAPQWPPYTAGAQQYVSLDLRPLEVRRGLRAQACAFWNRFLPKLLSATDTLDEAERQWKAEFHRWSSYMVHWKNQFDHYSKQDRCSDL
Sequence of Cholinesterase (P06276 whole entry): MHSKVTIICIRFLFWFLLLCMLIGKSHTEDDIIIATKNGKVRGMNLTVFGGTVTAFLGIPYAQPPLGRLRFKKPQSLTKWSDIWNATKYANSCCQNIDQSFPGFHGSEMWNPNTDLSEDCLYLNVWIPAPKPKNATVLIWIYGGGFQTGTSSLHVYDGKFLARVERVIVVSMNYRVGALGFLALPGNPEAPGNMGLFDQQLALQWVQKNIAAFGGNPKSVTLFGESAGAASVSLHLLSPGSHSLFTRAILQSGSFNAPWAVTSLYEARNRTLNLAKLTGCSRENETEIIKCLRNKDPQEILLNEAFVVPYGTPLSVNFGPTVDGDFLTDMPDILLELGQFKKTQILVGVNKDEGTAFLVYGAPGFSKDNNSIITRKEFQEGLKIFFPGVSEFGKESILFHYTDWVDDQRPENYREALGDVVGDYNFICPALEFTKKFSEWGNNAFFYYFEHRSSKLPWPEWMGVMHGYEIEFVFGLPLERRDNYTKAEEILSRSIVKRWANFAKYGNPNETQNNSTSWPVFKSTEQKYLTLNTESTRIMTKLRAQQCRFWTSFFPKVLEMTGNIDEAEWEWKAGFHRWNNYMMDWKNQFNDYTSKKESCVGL

SMILES | IC50 (Acetylcholinesterase) [nM] | IC50 (Cholinesterase) [nM] | other results
CCN(CCCCCCNC1=CC(=O)C(NCCCCCCN(CC)Cc2ccccc2OC)=CC1=O)Cc1ccccc1OC [MEMOQUIN] | – | – | Activity (SH-SY5Y [1]): 30.5%; Activity (SH-SY5Y [2]): 53%; Activity (SH-SY5Y [3]): 49.94%; Activity (SH-SY5Y [4]): 40.25%
CCN(CCCCCCNC1=CC(=O)C(NCCCCCCN(CC)CCc2ccccc2OC)=CC1=O)CCc1ccccc1OC | 17.3 | 518 | –
CCN(CCCNC1=CC(=O)C(NCCCN(CC)Cc2ccccc2OC)=CC1=O)Cc1ccccc1OC | – | 9840 | –
CCN(CCCCCCNC1=CC(=O)C(NCCCCCCN(CC)Cc2ccccc2C)=CC1=O)Cc1ccccc1C | 71.9 | 2080 | –
CCN(CCCCCCNC1=CC(=O)C(NCCCCCCN(CC)Cc2ccccn2)=CC1=O)Cc1ccccn1 | 125 | 2470 | –
CCN(CCCCCCNC1=CC(=O)C(NCCCCCCN(CC)Cc2ccc(OC)cc2)=CC1=O)Cc1ccc(OC)cc1 | – | 2390 | –
CCN(CCCCCCNc1ccc(NCCCCCCN(CC)Cc2ccccc2OC)cc1)Cc1ccccc1OC | 42.5 | 505 | Activity (SH-SY5Y [1]): 49.54%; Activity [5]: inactive; Activity (SH-SY5Y [2]): 54.2%; Activity (SH-SY5Y [3]): 50.45%; Activity (SH-SY5Y [4]): 51.35%
CCN(CCCCCCNC1=CC(=O)C(NCCCCCCN(CC)Cc2ccccc2[N+](=O)[O-])=CC1=O)Cc1ccccc1[N+](=O)[O-] | – | 67100 | –
CCN(CCCCCCNC1=C(Cl)C(=O)C(NCCCCCCN(CC)Cc2ccccc2OC)=C(Cl)C1=O)Cc1ccccc1OC | 3.05 | 800 | –
CCN(CCCCCCNC1=CC(=O)C(NCCCCCCN(CC)Cc2cccnc2)=CC1=O)Cc1cccnc1 | 133 | 11900 | –
CCN(Cc1ccccc1OC)C(=O)CCCCCNC1=CC(=O)C(NCCCCCC(=O)N(CC)Cc2ccccc2OC)=CC1=O | 11600 | 18500 | –
CCN(CCCCCCNC1=CC(=O)C(NCCCCCCN(CC)Cc2ccco2)=CC1=O)Cc1ccco1 | – | 3410 | –
CCN(CCCCCCNC1=CC(=O)C(NCCCCCCN(CC)Cc2cccc(OC)c2)=CC1=O)Cc1cccc(OC)c1 | – | 1690 | –
CCN(CCCCNC1=CC(=O)C(NCCCCN(CC)Cc2ccccc2OC)=CC1=O)Cc1ccccc1OC | 13.6 | 12800 | –
CCN(CCCCCCNC1=CC(=O)C(NCCCCCCN(CC)Cc2ccncc2)=CC1=O)Cc1ccncc1 | 192 | 70100 | –
COc1ccccc1CN(CCCCCCNC1=CC(=O)C(NCCCCCCN(Cc2ccccc2OC)C(C)C)=CC1=O)C(C)C | 12.9 | 660 | –
CCN(CCCCCCNC1=C(c2ccccc2)C(=O)C(NCCCCCCN(CC)Cc2ccccc2OC)=C(c2ccccc2)C1=O)Cc1ccccc1OC | 123 | 2250 | –
CCN(CCCCCCNC1=C(Br)C(=O)C(NCCCCCCN(CC)Cc2ccccc2OC)=C(Br)C1=O)Cc1ccccc1OC | – | 696 | Activity (SH-SY5Y [1]): 42.12%; Activity (SH-SY5Y [2]): 50.51%; Activity (SH-SY5Y [3]): 52.35%; Activity (SH-SY5Y [4]): 50.43%
CCN(CCCCCNC1=CC(=O)C(NCCCCCN(CC)Cc2ccccc2OC)=CC1=O)Cc1ccccc1OC | 2.36 | 3460 | –
CCN(CCCCCCNC1=CC(=O)C(NCCCCCCN(CC)Cc2cccs2)=CC1=O)Cc1cccs1 | 60.4 | 2790 | –
